Measured values as given in patent US11179348B2, “Combination comprising pterostilbene for the treatment of cancer” (FUNDACIÓN UNIVERSIDAD CATÓLICA DE VALENCIA SAN VICENTE …, priority 2015, dated 2021).

Legend:
MCF-7 cells = assay: GSH levels and glutathione- and oxidative stress-related enzyme activities in MCF-7 cells growing in vivo; parameters: species or system human; conditions: MCF-7, in vivo Pter, day 28
Description: (§1) To measure enzyme activity, isolated tumor cells were homogenized in 0.1 M phosphate buffer (pH 7.2) at 4° C. GCL and GSS activities were measured as described previously (Obrador, E. et al. Hepatology 35, 74-81 (2002)). GPX (selenium dependent) activity was measured as described by Flohé and Gunzler (Flohe, L. & Gunzler, W. A. Methods Enzymol 105, 114-121 (1984)) using H2O2 as a substrate. GSR activity was determined as described by Akerboom and Sies (Akerboom, T. P. et al, Bull Eur Physiopathol Respir 17 Suppl, 221-227 (1981)). GGT activity was measured as described previously (Obrador, E. et al. Hepatology 35, 74-81 (2002)). GST activity was measured using an assay kit from Sigma. TXNRD activity, defined by the concentration of sodium-lipoate (disulfide) reduced to dehydrolipoate (dithiol) per milligram protein, was measured as previously described (Javvadi, P. et al. Cancer Res 70, 1941-1950 (2010)). SOD activity was measured as described by Flohé and Otting (Flohe, L. & Otting, F. Methods Enzymol 105, 93-104 (1984).) using 2 mM cyanide in the assay medium to distinguish mangano-type enzyme (SOD2) from the cuprozinc type (SOD1). CAT activity was analyzed as described by Aebi (Aebi, H. Methods Enzymol 105, 121-126 (1984)). NOX activity was measured by chemiluminescence following the methodology of Wind et al. (Wind, S. et al. Comparative pharmacology of chemically distinct NADPH oxidase inhibitors. Br J Pharmacol 161, 885-898 (2010)). Protein concentration was determined with the Pierce BCA protein assay (Fisher Scientific, Waltham, Mass.).
(§2) GSH, GSSG, NADP^+ and NADPH Determination.
(§3) GSH and GSSG were determined, following procedures previously described (Obrador, E. et al. PLoS One 9, e96466 (2014)), by LC/MS using the same equipment described above for pterostilbene determination. Cell processing was performed according to published methodology, where rapid N-ethylmaleimide derivatization was used to prevent GSH auto-oxidation (Asensi, M. et al. Anal Biochem 217, 323-328 (1994)). NADP^+ and NADPH were quantitated using an assay kit from Sigma (St. Louis, Mo.).
Isolation of Tumor Cells from Mouse Xenografts Using Enzymatic Digestion and a double Ficoll gradient.
To maximize the amount of isolated cells, avoiding the use of RFP-transfected cells and subsequent laser microdissection, an alternative methodology was set up. To maximize cell yield and viability the following combination of enzymes was used: collagenase III (200 U/ml; Sigma-Aldrich), DNase I (200 U/ml; Sigma-Aldrich) and trypsin (5 mg/ml; Invitrogen), and a non-enzymatic dissociation buffer (NEDB, Invitrogen). Briefly, mice were killed, and tumors were removed (avoiding skin, muscle and fat) into cold culture media and processed immediately. The tumors were minced into 1-3 mm fragments, which were then incubated with the dissociation solution (see above) for 30 min at 37° C. The tumor fragments were mixed up and down every 10 min using a […] micropipette with a tip cut to a diameter adapted to tissue fragment size. After each incubation period, the fragments were filtered through a […] nylon mesh cell strainer (BD Biosciences, San Diego, Calif., USA). The released cells were centrifuged at 1200 r.p.m. for 2 min and stored in cold CO2-independent medium with 30% FCS at […]. Fresh dissociation solution was added to the remaining tissue fragments for 30 min. Dissociation was stopped when no additional cells were released. The fragments were pushed through a sieve and all cells from all incubation periods were pooled and counted.
The dissociated cells were layered onto a double Ficoll gradient (Histopaque; Sigma-Aldrich; densities 1.077 and 1.119) and spun at 700 g for 30 min at room temperature. Cells removed from both interfaces were pooled and washed two times in CO2-independent medium and stored at 4° C. Debris and red blood cell elimination was improved with the dual-density gradient. […]

A2058 melanoma cells = assay: Nrf2- and redox state-related enzyme activities and metabolites in A2058 cells growing in vivo; parameters: species or system human; conditions: A2058, in vivo +Pter, day 35
Description: Transfection of the Red Fluorescence Protein.
First the pDsRed-2 vector (Clontech Laboratories Inc., Palo Alto, Calif.) was used, as previously described for A375 melanoma cells (Mena, S. et al. J Transl Med 10, 8 (2012)), to engineer A2058, MeWo and MelJuso melanoma clones stably expressing the RFP. Isolation of A2058-RFP, MeWo-RFP or MelJuso-RFP cells from the growing xenografts was performed by laser microdissection and high-performance cell sorting as previously described in detail (Mena, S. et al. J Transl Med 10, 8 (2012)).
as §1
Measurement of H2O2 and O2^⋅−.
Quantitative measurement of H2O2 and flow cytometry determination of O2^⋅− generation were performed as previously described (Benlloch, M. et al. J Biol Chem 281, 69-79 (2006)).
as §2, §3

Work on `COc1cc(/C=C/c2ccc(O)cc2)cc(OC)c1` [Pter, trans-3,5-dimethoxy-4′-hydroxystilbene] yielded a CAT (MCF-7 cells) of 0.5 ± 0.2 mU/10^6 cells, a GCL (MCF-7 cells) of 166 ± 34 mU/10^6 cells and a GSH (MCF-7 cells) of 30.6 ± 4.2 nmol/10^6 cells. It also gave a GSS (MCF-7 cells) of 25.2 ± 5.6 mU/10^6 cells, a GSSG (MCF-7 cells) of 0.3 ± 0.1 nmol/10^6 cells and an SOD1 (MCF-7 cells) of 1.0 ± 0.08 U/10^6 cells. For the same compound, the SOD2 (MCF-7 cells) was 0.12 ± 0.05 U/10^6 cells, the CAT (A2058 melanoma cells) was 1.7 ± 0.3 mU/10^6 cells and the G6PDH (A2058 melanoma cells) was 305 ± 78 mU/10^6 cells. It also gave a GCL (A2058 melanoma cells) of 58 ± 17 mU/10^6 cells, a GGT (A2058 melanoma cells) of 19.6 ± 2.7 mU/10^6 cells and a GPX (A2058 melanoma cells) of 3.9 ± 1.1 mU/10^6 cells. The GSH (A2058 melanoma cells) was 10.5 ± 2.1 nmol/10^6 cells, the GSH/GSSG (A2058 melanoma cells) was 35 ± 5 and the GSR (A2058 melanoma cells) was 6.1 ± 1.6 mU/10^6 cells. The GSS (A2058 melanoma cells) was 8.5 ± 2.0 mU/10^6 cells, the GSSG (A2058 melanoma cells) was 0.3 ± 0.1 nmol/10^6 cells and the GST (A2058 melanoma cells) was 7.5 ± 1.3 mU/10^6 cells. The H2O2 (A2058 melanoma cells) was 0.7 ± 0.2 nmol/10^6 cells × min, the IDH (A2058 melanoma cells) was 1.2 ± 0.4 U/10^6 cells and the ME (A2058 melanoma cells) was 43 ± 12 mU/10^6 cells. For the same compound, the NADPH (A2058 melanoma cells) was 0.06 ± 0.02 nmol/mg prot, the “NADPH/NADP^+” value (A2058 melanoma cells) was 1.2 ± 0.3 and the “NADP^+” value (A2058 melanoma cells) was 0.05 ± 0.01 nmol/mg prot. For the same compound, the NOX (A2058 melanoma cells) was 177 ± 4.5 R.L.U./10^6 cells, the “O2^−” value (A2058 melanoma cells) was 3.9 ± 0.6 ΔFL1, a.u and the SOD1 (A2058 melanoma cells) was 0.6 ± 0.2 U/10^6 cells. It also gave an SOD2 (A2058 melanoma cells) of 0.1 ± 0.05 U/10^6 cells, a TXN (A2058 melanoma cells) of 0.5 ± 0.1 μg/10^6 cells and a TXNRD (A2058 melanoma cells) of 0.7 ± 0.2 U/10^6 cells.
